This note sets out measurements from patent US20060201053A1, “Barrier preventing wood pest access to wooden structures” (priority 2000, published 2006).

Common to all, as to assay type: physicochemical
Data set [1] is described as follows: Release rate of pyrethrin from polymer systems (Example 2). Particulars: Pyrethrin I content 10%, 40° C. Here is the method: Studies were also conducted with similar polymer systems as in Example 1 but with 80% pure pyrethrin.
The nature of data set [2]: Thermal decomposition of the pesticide during processing. On the procedure: To have a safety cushion for operating conditions, it is beneficial to have a processing temperature of approximately 150° C.
(§1) The polymers evaluated included low melt polyethylene, polyurethane, two epoxies, silicone rubber, and a low melt polyethylene high in waxes to reduce thermal decomposition of the chlorpyrifos.

Data set [3] in a line: Release rate of chlorpyrifos from polymer devices (Example 1). To be noted: 50° C. Here is the method: Experiments were conducted to determine the release rate of chlorpyrifos. Loading rates for the insecticide were either 5 wt. % (weight percent) or 10 wt. % depending on the polymer. Release rates were determined for all devices at 50° C.
as §1
Release rates ranged from 10 μg/cm^2/day for the silicone rubber to 0.3 μg/cm^2/day for Epoxy B.

Data set [4] can be described thus: Release rate of 10 wt. % pyrethroid impregnated polymers (Example 5).
Data set [5] in a line: Effect of carbon black binding carrier on release rate (Example 6). Particulars: active chemical 5 wt. %, high density polyethylene (MA 778-000), 6 weeks after fabrication. On the procedure:
Release rates were measured at 6 weeks after fabrication wherein samples were wiped weekly to remove surface accumulation of released active chemical.

Data set [6] is described as follows: Release rate of pesticides from controlled release devices, one inch squares of 1/8 inch sheets (Example 3). The text has this: Controlled release devices were made and tested to obtain their release rates. All thermoplastic polymers were formulated with 10 percent pesticide, 3 or 7 percent carbon black to absorb liquid pesticide, and 83 to 87 percent by weight of polymer and injection molded into thin sheets about ⅛ inch thick. […] The devices made from the remaining pesticides and thermoplastic polymers contained 7 percent of carbon black.
The devices made from S-113 urethane (a thermoset polymer) were made from a polymer mix containing 60% S-113, 40% castor oil and […] of TIPA catalyst by weight. The polymer mix comprised 90% of the total weight of the device. The pesticide, deltamethrin, comprised the remaining 10% of the device. No carbon black was used in this device. The polymer/pesticide mixture was cast into a ⅛ inch thick sheet and heated at about 60° C. for about 40 to 60 minutes to cure the cast sheet.
One inch squares were then cut from the thin sheets that were injection molded or cast and the squares were tested for release rates.

Data set [7] in a line: Release rate of lambda cyhalothrin from multi-layer barrier film. The source says: The release rate of bioactive chemicals from the bonding layer 126 to the other layers is greater than the release rate of bioactive chemicals from the barrier film 110 to the exterior of the barrier film 110.
Data set [8] can be described thus: Release rate versus lambda cyhalothrin concentration and polymer combination (Example 4).
Protocol: An experiment was conducted to determine the effect of lambda cyhalothrin (pyrethroid) concentration and insecticide/polymer combination on release rate of insecticide from the polymer.
Setting [9] is: Polyethylene MA 778-000, 10 percent pesticide.
[10] abbreviates: Polyurethane 2200, 10 percent pesticide.
The mark [11] stands for this setting: Polyurethane 3100, 10 percent pesticide.

Marks after values point to notes of the source that are not given here.

In the case of `C=C/C=C\CC1=C(C)[C@@H](OC(=O)[C@@H]2[C@@H](C=C(C)C)C2(C)C)CC1=O` [Pyrethrin I], the “Release Rate” value amounted to 0.5 ± 0.2 μg/cm^2/day in data set [1] (Epoxy A), 0.2 ± 0.1 μg/cm^2/day in data set [1] (Epoxy B), 21.2 ± 5.4 μg/cm^2/day in data set [1] (Silicone) and 15.7 ± 7.1 μg/cm^2/day in data set [1] (Urethane).

As to `CCOP(=S)(OCC)Oc1nc(Cl)c(Cl)cc1Cl` [Chlorpyrifos, chlorpyrifos], the “temperature above which excessive thermal decomposition occurred” value in data set [2] (polymer processing) was above 240 °C. Further, the “Release Rate” value in data set [3] (Epoxy A, chlorpyrifos content 5%) is reported as below 0.1 μg/cm^2/da; in data set [3] (Epoxy B, chlorpyrifos content 10%), 0.3 ± 0.1 μg/cm^2/da; in data set [3] (Epoxy B, chlorpyrifos content 10%, listed as chlorpyrifos) it was 0.3 μg/cm^2/da; in data set [3] (PE + Wax, chlorpyrifos content 10%), 1.9 ± 0.3 μg/cm^2/da; in data set [3] (Polyurethane, chlorpyrifos content 5%, material exhibited excessive cracking) it was 2.1 ± 1.4^b μg/cm^2/da; in data set [3] (Silicone, chlorpyrifos content 5%), 10.3 ± 3.5 μg/cm^2/da. Further, the “Release Rate” value in data set [3] (Silicone, chlorpyrifos content 5%, listed as chlorpyrifos) worked out at 10 μg/cm^2/da; in data set [3] (Urethane, chlorpyrifos content 10%) it was 1.0 ± 0.3 μg/cm^2/da.

In the case of `Cc1c(F)c(F)c(COC(=O)[C@@H]2[C@H](/C=C(\Cl)C(F)(F)F)C2(C)C)c(F)c1F` (racemic) [Tefluthrin], the “Release Rate” value in data set [4] (Ethylvinyl acetate) was determined as 4.3 mg/cm^2/da; in data set [4] (Polyethylene), 2.2 mg/cm^2/da; in data set [5] (carbon black 0 wt. %), 3.13 μg/cm^2/day; in data set [5] (carbon black 10 wt. %) it was 0.71 μg/cm^2/day; in data set [6] (EVA 763, 10 percent pesticide) it was 40.4 μg/cm^2/day; in data set [6] (setting [9]), 27.0 μg/cm^2/day. For the same compound, the “Release Rate” value in data set [6] (setting [10]) is listed as 25.0 μg/cm^2/day; in data set [6] (setting [11]), 6.4 μg/cm^2/day.

On to `CC1(C)[C@H](C(=O)O[C@H](C#N)c2cccc(Oc3ccccc3)c2)[C@@H]1C=C(Br)Br` [Deltamethrin], for which the “Release Rate” value in data set [6] (Alipmtic PS-49-100, 10 percent pesticide) amounted to 7.2 μg/cm^2/day; in data set [6] (Aromatic 80A, 10 percent pesticide) it was 16.8 μg/cm^2/day; in data set [6] (Pellethane 2102-55D, 10 percent pesticide), 8.0 μg/cm^2/day; in data set [6] (Pellethane 2102-80A, 10 percent pesticide), 8.8 μg/cm^2/day; in data set [6] (S-113 urethane, 10% pesticide, no carbon black) it was 25.2 μg/cm^2/day.

Take `CC1(C)C(C=C(Cl)Cl)C1C(=O)OCc1cccc(Oc2ccccc2)c1` (stereo not shown) [Permethrin]: the “Release Rate” value in data set [4] (Ethylvinyl acetate) came out at 3.9 mg/cm^2/da; in data set [4] (Polyethylene), 1.4 mg/cm^2/da; in data set [6] (EVA 763, 10 percent pesticide) it was 28.5 μg/cm^2/day; in data set [6] (setting [9]) it was 4.0 μg/cm^2/day; in data set [6] (setting [10]), 1.3 μg/cm^2/day; in data set [6] (setting [11]) it was 1.4 μg/cm^2/day.

With `CC1(C)[C@H](C(=O)O[C@H](C#N)c2cccc(Oc3ccccc3)c2)[C@@H]1/C=C(\Cl)C(F)(F)F` (racemic) [Lambda cyhalothrin], the “release rate from barrier film” value in data set [7] (preferred eight-layer embodiment) and in data set [7] (six-layer embodiment) was “less than 0.002 μg per square centimeter of film per day” each time. Also, the “Release Rate” value in data set [5] (carbon black 0 wt. %) was determined as 1.78 μg/cm^2/day; in data set [5] (carbon black 10 wt. %) it was 0.81 μg/cm^2/day; in data set [5] (carbon black 20 wt. %), 0.61 μg/cm^2/day; in data set [6] (EVA 763, 10 percent pesticide) it was 27.3 μg/cm^2/day; in data set [6] (setting [9]), 4.6 μg/cm^2/day; in data set [6] (setting [10]) it was 0.7 μg/cm^2/day. Also, the “Release Rate” value in data set [6] (setting [11]) is listed as 0.4 μg/cm^2/day. Moreover, the “Pyrethroid Release Rate” value in data set [8] (Ethylvinyl Acetate (EVA), pyrethroid 1 wt. %) is recorded as 0.3 mg/cm^2/da; in data set [8] (Ethylvinyl Acetate (EVA), pyrethroid 5 wt. %), 2.2 mg/cm^2/da; in data set [8] (Ethylvinyl Acetate (EVA), pyrethroid 10 wt. %) it was 2.5 mg/cm^2/da; in data set [8] (Polyurethane, pyrethroid 1 wt. %), 0.9 mg/cm^2/da; in data set [8] (Polyurethane, pyrethroid 5 wt. %), 4.4 mg/cm^2/da; in data set [8] (Polyurethane, pyrethroid 10 wt. %), 8.3 mg/cm^2/da. The “Pyrethroid Release Rate” value is 2.6 mg/cm^2/da in data set [8] (Polyurethane/EVA (50/50), pyrethroid 1 wt. %); 7.2 mg/cm^2/da in data set [8] (Polyurethane/EVA (50/50), pyrethroid 5 wt. %); 9.1 mg/cm^2/da in data set [8] (Polyurethane/EVA (50/50), pyrethroid 10 wt. %). Moreover, the “temperature above which thermal decomposition and volatilization occurs” value in data set [2] (in the manufacturing process) is above 160 °C.

In the case of `CC1(C)C(C=C(Cl)Cl)C1C(=O)OC(C#N)c1cccc(Oc2ccccc2)c1` (stereo not shown) [Cypermethrin], the “Release Rate” value is on record as 27.3 μg/cm^2/day in data set [6] (EVA 763, 10 percent pesticide); 4.6 μg/cm^2/day in data set [6] (setting [9]); 0.7 μg/cm^2/day in data set [6] (setting [10]); 0.4 μg/cm^2/day in data set [6] (setting [11]).
